Test results reported in the supplement of paper PMC11208160.

Assay: recombinant UMI read abundance after kanamycin selection (control-corrected) (log10(CPM+1)); higher = more efficient recombination; extreme values may be limits of the assay; sequences stand for … in AGTGCAGAGAAAATCGGCCAGTTTTCTCTGCCTGCAGTCCGCATGCCGTGGGACCCCTTGGGTTCTAACCTGTTGCCTAGATTTATGCAGCGGACTGCCTTTCTCCCAAAGTGATAAACCGG…AGGTTGGTTTCACT; site = the 11-nt donor
Method in brief: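 Under IPTG (0.07 mM) plus kanamycin, or without selection, Escherichia coli carrying a UMI-tagged donor and donor-binding-loop pair library and a target plasmid for the IS621 bridge recombinase were plated in two replicates. Recombinant UMIs were PCR-amplified across the donor–target junction and sequenced. Counts were converted to CPM, averaged over replicates, scaled by control-derived factors and reported as log10(CPM+1).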
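Note: IS621 bridge recombinase in Escherichia coli cells against a fixed T5 target plasmid.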

For “TAACGCACATGGACCGGTTTTCCCGGTAATCCGTATTTGGT (site TAACGCACTAC)”, which “recombinant UMI read abundance (log10)” value is on record?
Its value is 0.736.

Which “recombinant UMI read abundance (log10)” value does the source give for “TAACGGTCATGGACCGGTTTTCCCGGTAATCCGTATTTGGC (site TAACGGTCTGC)” here?
Its value is 2.67.

For “TAACGTTCATGGACCGGTTTTCCCGGTAATCCGTATTTGTA (site TAACGTTCTTA)”, which “recombinant UMI read abundance (log10)” value is on record?
The value was 1.16.

With “TAAGCACCATGGACCGGTTTTCCCGGTAATCCGTATTTGAA (site TAAGCACCTTT)” as the sequence, how does the “recombinant UMI read abundance (log10)” value read?
The value was 0.0176.

With “TAAGCCACATGGACCGGTTTTCCCGGTAATCCGTATTTGAC (site TAAGCCACTGT)” as the sequence, how does the “recombinant UMI read abundance (log10)” value read?
The value was 2.78.

With “TAAGCCGCATGGACCGGTTTTCCCGGTAATCCGTATTTGGG (site TAAGCCGCTCC)” as the sequence, how does the “recombinant UMI read abundance (log10)” value read?
Its value is 0.0145.

Which “recombinant UMI read abundance (log10)” value does the source give for “TAAGCGCCATGGACCGGTTTTCCCGGTAATCCGTATTTGTG (site AAAGCGCCTCA)” here?
Its value is 0.0246.

Which “recombinant UMI read abundance (log10)” value does the source give for “TAAGCGCCATGGACCGGTTTTCCCGGTAATCCGTATTTGTG (site CAAGCGCCTCA)” here?
The value was 0.0975.

With “TAAGCGCCATGGACCGGTTTTCCCGGTAATCCGTATTTGTG (site GAAGCGCCTCA)” as the sequence, how does the “recombinant UMI read abundance (log10)” value read?
The value was 0.032.

With “TAAGCGCCATGGACCGGTTTTCCCGGTAATCCGTATTTGTG (site TAAGCGCCTCA)” as the sequence, how does the “recombinant UMI read abundance (log10)” value read?
Its value is 0.248.

Which “recombinant UMI read abundance (log10)” value does the source give for “TAAGCTCCATGGACCGGTTTTCCCGGTAATCCGTATTTGCG (site TAAGCTCCTCG)” here?
Its value is 0.303.

With “TAAGGGGCATGGACCGGTTTTCCCGGTAATCCGTATTTGGC (site TAAGGGGCTGC)” as the sequence, how does the “recombinant UMI read abundance (log10)” value read?
Its value is 2.41.

For “TAAGTGTCATGGACCGGTTTTCCCGGTAATCCGTATTTGCA (site TAAGTGTCTTG)”, which “recombinant UMI read abundance (log10)” value is on record?
Its value is 3.32.

With “TAATACTCATGGACCGGTTTTCCCGGTAATCCGTATTTGCA (site TAATACTCTTG)” as the sequence, how does the “recombinant UMI read abundance (log10)” value read?
Its value is 2.63.

With “TAATACTCATGGACCGGTTTTCCCGGTAATCCGTATTTGCA (site TCATACTCTTG)” as the sequence, how does the “recombinant UMI read abundance (log10)” value read?
Its value is 1.69.

With “TAATACTCATGGACCGGTTTTCCCGGTAATCCGTATTTGCA (site TGATACTCTTG)” as the sequence, how does the “recombinant UMI read abundance (log10)” value read?
The value was 1.6.

With “TAATACTCATGGACCGGTTTTCCCGGTAATCCGTATTTGCA (site TTATACTCTTG)” as the sequence, how does the “recombinant UMI read abundance (log10)” value read?
Its value is 1.68.

Which “recombinant UMI read abundance (log10)” value does the source give for “TAATAGACATGGACCGGTTTTCCCGGTAATCCGTATTTGGC (site TAATAGACTGC)” here?
The value was 2.02.

For “TAATCAGCATGGACCGGTTTTCCCGGTAATCCGTATTTGGG (site TAATAAGCTCC)”, which “recombinant UMI read abundance (log10)” value is on record?
Its value is 0.00976.

With “TAATCAGCATGGACCGGTTTTCCCGGTAATCCGTATTTGGG (site TAATCAGCTCC)” as the sequence, how does the “recombinant UMI read abundance (log10)” value read?
The value was 0.0129.

With “TAATCAGCATGGACCGGTTTTCCCGGTAATCCGTATTTGGG (site TAATGAGCTCC)” as the sequence, how does the “recombinant UMI read abundance (log10)” value read?
Its value is 0.00426.

With “TAATCAGCATGGACCGGTTTTCCCGGTAATCCGTATTTGGG (site TAATTAGCTCC)” as the sequence, how does the “recombinant UMI read abundance (log10)” value read?
Its value is 0.0124.

Which “recombinant UMI read abundance (log10)” value does the source give for “TAATGAGCATGGACCGGTTTTCCCGGTAATCCGTATTTGGT (site TAATGAGCTAC)” here?
Its value is 0.862.

With “TAATGAGCATGGACCGGTTTTCCCGGTAATCCGTATTTGGT (site TAATGAGCTCC)” as the sequence, how does the “recombinant UMI read abundance (log10)” value read?
The value was 0.00749.

For “TAATGAGCATGGACCGGTTTTCCCGGTAATCCGTATTTGGT (site TAATGAGCTGC)”, which “recombinant UMI read abundance (log10)” value is on record?
Its value is 0.

With “TAATGAGCATGGACCGGTTTTCCCGGTAATCCGTATTTGGT (site TAATGAGCTTC)” as the sequence, how does the “recombinant UMI read abundance (log10)” value read?
Its value is 0.0263.

Which “recombinant UMI read abundance (log10)” value does the source give for “TAATGATCATGGACCGGTTTTCCCGGTAATCCGTATTTGGG (site TAATGAACTCC)” here?
The value was 0.0159.

With “TAATGATCATGGACCGGTTTTCCCGGTAATCCGTATTTGGG (site TAATGACCTCC)” as the sequence, how does the “recombinant UMI read abundance (log10)” value read?
The value was 0.00916.

For “TAATGATCATGGACCGGTTTTCCCGGTAATCCGTATTTGGG (site TAATGAGCTCC)”, which “recombinant UMI read abundance (log10)” value is on record?
The value was 0.0135.

With “TAATGATCATGGACCGGTTTTCCCGGTAATCCGTATTTGGG (site TAATGATCTCC)” as the sequence, how does the “recombinant UMI read abundance (log10)” value read?
Its value is 0.594.

Which “recombinant UMI read abundance (log10)” value does the source give for “TAATGGGCATGGACCGGTTTTCCCGGTAATCCGTATTTGGG (site TAATGAGCTCC)” here?
The value was 0.0138.

With “TAATGGGCATGGACCGGTTTTCCCGGTAATCCGTATTTGGG (site TAATGCGCTCC)” as the sequence, how does the “recombinant UMI read abundance (log10)” value read?
Its value is 0.0166.

For “TAATGGGCATGGACCGGTTTTCCCGGTAATCCGTATTTGGG (site TAATGGGCTCC)”, which “recombinant UMI read abundance (log10)” value is on record?
The value was 0.0225.

For “TAATGGGCATGGACCGGTTTTCCCGGTAATCCGTATTTGGG (site TAATGTGCTCC)”, which “recombinant UMI read abundance (log10)” value is on record?
The value was 0.0203.

With “TAATTAACATGGACCGGTTTTCCCGGTAATCCGTATTTGGT (site TAATTAACTAC)” as the sequence, how does the “recombinant UMI read abundance (log10)” value read?
The value was 0.813.

For “TAATTCCCATGGACCGGTTTTCCCGGTAATCCGTATTTGCT (site AAATTCCCTAG)”, which “recombinant UMI read abundance (log10)” value is on record?
The value was 0.531.

Which “recombinant UMI read abundance (log10)” value does the source give for “TAATTCCCATGGACCGGTTTTCCCGGTAATCCGTATTTGCT (site CAATTCCCTAG)” here?
Its value is 0.55.

Which “recombinant UMI read abundance (log10)” value does the source give for “TAATTCCCATGGACCGGTTTTCCCGGTAATCCGTATTTGCT (site GAATTCCCTAG)” here?
The value was 1.7.

Which “recombinant UMI read abundance (log10)” value does the source give for “TAATTCCCATGGACCGGTTTTCCCGGTAATCCGTATTTGCT (site TAATTCCCTAG)” here?
The value was 1.65.

Which “recombinant UMI read abundance (log10)” value does the source give for “TACACCGCATGGACCGGTTTTCCCGGTAATCCGTATTTGAG (site TACACCGCTCT)” here?
Its value is 0.702.

Which “recombinant UMI read abundance (log10)” value does the source give for “TACACCGCATGGACCGGTTTTCCCGGTAATCCGTATTTGCG (site TACACCGCTCG)” here?
The value was 0.0108.

For “TACACCGCATGGACCGGTTTTCCCGGTAATCCGTATTTGCG (site TCCACCGCTCG)”, which “recombinant UMI read abundance (log10)” value is on record?
The value was 0.

For “TACACCGCATGGACCGGTTTTCCCGGTAATCCGTATTTGCG (site TGCACCGCTCG)”, which “recombinant UMI read abundance (log10)” value is on record?
The value was 0.0236.

Which “recombinant UMI read abundance (log10)” value does the source give for “TACACCGCATGGACCGGTTTTCCCGGTAATCCGTATTTGCG (site TTCACCGCTCG)” here?
The value was 0.00838.

Which “recombinant UMI read abundance (log10)” value does the source give for “TACAGCTCATGGACCGGTTTTCCCGGTAATCCGTATTTGGA (site TACAGCTCTTC)” here?
Its value is 0.841.

Which “recombinant UMI read abundance (log10)” value does the source give for “TACAGTCCATGGACCGGTTTTCCCGGTAATCCGTATTTGTA (site TAAAGTCCTTA)” here?
Its value is 0.

With “TACAGTCCATGGACCGGTTTTCCCGGTAATCCGTATTTGTA (site TACAGTCCTTA)” as the sequence, how does the “recombinant UMI read abundance (log10)” value read?
Its value is 0.128.

For “TACAGTCCATGGACCGGTTTTCCCGGTAATCCGTATTTGTA (site TAGAGTCCTTA)”, which “recombinant UMI read abundance (log10)” value is on record?
The value was 0.198.

Which “recombinant UMI read abundance (log10)” value does the source give for “TACAGTCCATGGACCGGTTTTCCCGGTAATCCGTATTTGTA (site TATAGTCCTTA)” here?
The value was 0.00977.

For “TACAGTTCATGGACCGGTTTTCCCGGTAATCCGTATTTGAG (site TACAGTTCTCT)”, which “recombinant UMI read abundance (log10)” value is on record?
The value was 1.31.

Which “recombinant UMI read abundance (log10)” value does the source give for “TACATAACATGGACCGGTTTTCCCGGTAATCCGTATTTGCA (site TACATAACTTG)” here?
Its value is 0.258.

Which “recombinant UMI read abundance (log10)” value does the source give for “TACATATCATGGACCGGTTTTCCCGGTAATCCGTATTTGGG (site TACATATCTCC)” here?
The value was 0.
